Measured values published in BindingDB's records for doi:10.1021/jm010992z (Pharmazeutisches Institut Der Universität Freiburg, 2002).

Legend:
[1] = target: Sodium-dependent dopamine transporter (Rattus norvegicus) (UniProt P23977); assay: The compound was tested for inhibition of dopamine reuptake
[2] = Sigma opioid receptor type 2 affinity in rat liver by employing [3H]ditolylguanidine as radioligand
[3] = Sigma opioid receptor type 1 affinity in guinea pig brain by employing [3H](+)-pentazocine as radioligand.

Sodium-dependent dopamine transporter (Rattus norvegicus), sequence (P23977 whole entry, looked up): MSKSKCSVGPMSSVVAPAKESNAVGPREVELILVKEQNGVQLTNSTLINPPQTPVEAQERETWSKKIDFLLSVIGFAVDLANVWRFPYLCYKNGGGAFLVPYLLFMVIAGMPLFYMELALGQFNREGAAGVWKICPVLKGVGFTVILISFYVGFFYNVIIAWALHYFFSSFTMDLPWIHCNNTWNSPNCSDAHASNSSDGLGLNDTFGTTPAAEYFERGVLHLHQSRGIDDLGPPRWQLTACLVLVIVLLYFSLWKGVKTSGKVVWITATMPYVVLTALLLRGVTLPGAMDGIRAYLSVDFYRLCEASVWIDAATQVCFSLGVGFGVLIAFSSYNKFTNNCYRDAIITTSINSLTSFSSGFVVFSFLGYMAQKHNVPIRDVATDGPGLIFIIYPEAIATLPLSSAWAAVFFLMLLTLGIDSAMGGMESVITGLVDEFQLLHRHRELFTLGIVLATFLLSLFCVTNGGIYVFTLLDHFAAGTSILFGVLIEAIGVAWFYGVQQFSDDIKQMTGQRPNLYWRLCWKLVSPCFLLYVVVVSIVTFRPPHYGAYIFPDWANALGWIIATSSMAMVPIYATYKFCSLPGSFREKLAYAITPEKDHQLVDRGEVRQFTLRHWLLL

Compound	IC50 [1] [nM]	Ki [2] [nM]	Ki [3] [nM]
COC1Cc2ccccc2C2(CCN(CCCc3ccccc3)CC2)O1 (stereo not given)	1600		
OC1Cc2ccccc2C2(CCN(CCc3ccccc3)CC2)O1 (stereo not given) [1'-phenethylspiro[3,4-dihydro-1H-isochromene-1,4'-(hexahydropyridine)]-3-ol]		107	44
COC1Cc2ccccc2C2(CCN(C/C=C/c3ccccc3)CC2)O1 (stereo not given) [3-[3-methoxyspiro[3,4-dihydro-1H-isochromene-1,4'-(hexahydropyridine)]-1-yl]-1-phenyl-(E)-1-propene]		4000	13
COC1Cc2ccccc2C2(CCN(C)CC2)O1 (stereo not given) [3-methoxy-1'-methylspiro[3,4-dihydro-1H-isochromene-1,4'-(hexahydropyridine)]]		> 10000	4400

Next, values leading:

IC50 [1] [nM]	Ki [2] [nM]	Ki [3] [nM]	Compound
> 10000			COC1OC2(CCN(Cc3ccccc3)CC2)c2ccccc21 (stereo not given) [1'-benzyl-3-methoxyspiro[1,3-dihydroisobenzofuran-1,4'-(hexahydropyridine)]]
	311	10	COC1Cc2ccccc2C2(CCN(CCCCc3ccccc3)CC2)O1 (stereo not given) [1-[3-methoxyspiro[3,4-dihydro-1H-isochromene-1,4'-(hexahydropyridine)]-1-yl]-4-phenylbutane]
